Source: patent US10758534B2 (Vertex Pharmaceuticals Incorporated, priority 2014, dated 2020)

Biological target: T1, F508del (Homo sapiens, UniProt P13569, DEL508-508)
T1 construct: expressed in transfected cells
Test: Protocol 1: membrane potential optical assay (FLIPR III, voltage sensing dye), identification of potentiator compounds
Assay type: cell-based
Settings: Table 3, compounds of Table 1
Method in brief: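 NIH 3T3 fibroblasts stably expressing F508del were cultured at 27° C for 24 hrs for temperature correction, then treated with compounds or DMSO and loaded with a voltage-sensing redistribution dye. Forskolin added with a Cl⁻ gradient activated the channel; membrane-potential fluorescence on FLIPR III reported increased gating.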

T1 sequence (P13569 with tags, fused parts or gaps DEL508-508): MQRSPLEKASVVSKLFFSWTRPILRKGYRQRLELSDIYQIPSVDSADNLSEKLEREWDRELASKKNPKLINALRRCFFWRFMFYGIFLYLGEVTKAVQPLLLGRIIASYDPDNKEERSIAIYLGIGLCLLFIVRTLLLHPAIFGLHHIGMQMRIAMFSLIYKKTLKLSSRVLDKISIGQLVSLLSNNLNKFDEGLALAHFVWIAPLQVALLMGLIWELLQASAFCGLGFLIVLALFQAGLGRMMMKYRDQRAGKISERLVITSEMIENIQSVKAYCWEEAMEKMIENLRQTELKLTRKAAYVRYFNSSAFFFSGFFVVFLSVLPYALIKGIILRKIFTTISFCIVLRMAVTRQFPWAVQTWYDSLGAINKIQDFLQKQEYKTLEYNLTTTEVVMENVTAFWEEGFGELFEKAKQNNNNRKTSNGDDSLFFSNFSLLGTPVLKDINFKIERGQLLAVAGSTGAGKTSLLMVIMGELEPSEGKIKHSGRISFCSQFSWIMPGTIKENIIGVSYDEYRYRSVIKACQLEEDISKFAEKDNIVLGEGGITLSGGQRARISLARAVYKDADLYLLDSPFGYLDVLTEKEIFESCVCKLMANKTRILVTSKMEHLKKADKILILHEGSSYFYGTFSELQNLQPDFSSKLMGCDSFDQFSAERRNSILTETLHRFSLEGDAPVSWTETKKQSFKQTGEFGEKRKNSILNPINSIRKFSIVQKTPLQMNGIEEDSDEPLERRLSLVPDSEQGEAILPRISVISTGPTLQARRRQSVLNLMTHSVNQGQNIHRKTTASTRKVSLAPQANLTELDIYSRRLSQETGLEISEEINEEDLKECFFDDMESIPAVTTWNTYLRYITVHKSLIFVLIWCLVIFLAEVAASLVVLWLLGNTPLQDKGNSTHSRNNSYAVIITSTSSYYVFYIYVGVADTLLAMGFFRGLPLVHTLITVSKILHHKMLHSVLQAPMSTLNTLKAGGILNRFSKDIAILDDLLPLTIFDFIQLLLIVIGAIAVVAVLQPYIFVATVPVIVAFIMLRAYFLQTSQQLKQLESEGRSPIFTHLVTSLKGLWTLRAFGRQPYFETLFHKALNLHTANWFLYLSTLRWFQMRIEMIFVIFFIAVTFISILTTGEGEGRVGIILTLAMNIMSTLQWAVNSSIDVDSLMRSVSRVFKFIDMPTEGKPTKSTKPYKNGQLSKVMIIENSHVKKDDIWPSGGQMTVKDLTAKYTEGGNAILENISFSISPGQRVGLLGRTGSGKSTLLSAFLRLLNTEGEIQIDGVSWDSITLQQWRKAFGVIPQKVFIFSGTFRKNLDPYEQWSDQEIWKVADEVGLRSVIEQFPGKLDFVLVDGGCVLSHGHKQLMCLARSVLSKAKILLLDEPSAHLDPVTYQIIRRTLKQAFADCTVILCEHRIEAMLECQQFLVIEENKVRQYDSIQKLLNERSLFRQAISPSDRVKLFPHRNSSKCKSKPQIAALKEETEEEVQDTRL

Row | Compound | EC30
1 | C[C@@H]1CN(c2nc(-c3cccc(Cl)c3)ccc2C(=O)NS(=O)(=O)c2ccc[nH]c2=O)C(C)(C)C1 [Compound 1791, 6-(3-chlorophenyl)-N-[(2-oxo-1H-pyridin-3-yl)sulfonyl]-2-[(4S)-2,2,4-trimethylpyrrolidin-1-yl]pyridine-3-carboxamide] | +++ (“+++” means <3 uM)
2 | COc1ccc(-c2cnc(N3CC(C)CC3(C)C)c(C(=O)NS(=O)(=O)c3cccc(N)n3)c2)cc1 (centres unmarked) [Compound 1792, N-[(6-amino-2-pyridyl)sulfonyl]-5-(4-methoxyphenyl)-2-(2,2,4-trimethylpyrrolidin-1-yl)pyridine-3-carboxamide] | +++ (“+++” means <3 uM)
3 | C[C@@H]1CN(c2nc(C3CC(C)(C)CCC3=O)ccc2C(=O)NS(=O)(=O)c2cccnc2N)C(C)(C)C1 (stereo partly drawn) [Compound 1793, N-[(2-amino-3-pyridyl)sulfonyl]-6-(5,5-dimethyl-2-oxo-cyclohexyl)-2-[(4S)-2,2,4-trimethylpyrrolidin-1-yl]pyridine-3-carboxamide] | +++ (“+++” means <3 uM)
4 | CC1(C)C(CC2CC2)CCN1c1ncccc1C(=O)NS(=O)(=O)c1cccc(N)n1 (centres unmarked) [Compound 1794, N-[(6-amino-2-pyridyl)sulfonyl]-2-[3-(cyclopropylmethyl)-2,2-dimethyl-pyrrolidin-1-yl]pyridine-3-carboxamide] | ++ (“++” means between 3 uM and 10 uM)
5 | CCOc1cc(C)cc(-c2ccc(C(=O)NS(=O)(=O)c3cccnc3N)c(Oc3c(C)cc(C)cc3C)n2)n1 [Compound 1795, N-[(2-amino-3-pyridyl)sulfonyl]-6-(6-ethoxy-4-methyl-2-pyridyl)-2-(2,4,6-trimethylphenoxy)pyridine-3-carboxamide] | +++ (“+++” means <3 uM)
6 | CC1CN(c2ncccc2C(=O)NS(=O)(=O)c2cccc(Nc3cc(F)c(F)cc3F)n2)C(C)(C)C1 (centres unmarked) [Compound 1796, N—[[6-(2,4,5-trifluoroanilino)-2-pyridyl]sulfonyl]-2-(2,2,4-trimethylpyrrolidin-1-yl)pyridine-3-carboxamide] | +++ (“+++” means <3 uM)
7 | Cc1cccc(C)c1Oc1nc(-c2cc(F)cc(OCC(C)CO)c2)ccc1C(=O)NS(=O)(=O)c1cccc(N)n1 (centres unmarked) [Compound 1797, N-[(6-amino-2-pyridyl)sulfonyl]-2-(2,6-dimethylphenoxy)-6-[3-fluoro-5-(3-hydroxy-2-methyl-propoxy)phenyl]pyridine-3-carboxamide] | +++ (“+++” means <3 uM)
8 | CC1CN(c2ncccc2C(=O)NS(=O)(=O)c2cccc(OCc3ccccc3F)n2)C(C)(C)C1 (centres unmarked) [Compound 1798, N—[[6-[(2-fluorophenyl)methoxy]-2-pyridyl]sulfonyl]-2-(2,2,4-trimethylpyrrolidin-1-yl)pyridine-3-carboxamide] | +++ (“+++” means <3 uM)
9 | C[C@@H]1CN(c2nc(-c3ccc(C(F)(F)F)cc3)ccc2C(=O)NS(=O)(=O)c2ccc[nH]c2=O)C(C)(C)C1 [Compound 1799, N-[(2-oxo-1H-pyridin-3-yl)sulfonyl]-6-[4-(trifluoromethyl)phenyl]-2-[(4S)-2,2,4-trimethylpyrrolidin-1-yl]pyridine-3-carboxamide] | +++ (“+++” means <3 uM)
10 | CC1CN(c2ncccc2C(=O)NS(=O)(=O)c2cccc(OCCC3CCCCC3)n2)C(C)(C)C1 (centres unmarked) [Compound 1800, N—[[6-(2-cyclohexylethoxy)-2-pyridyl]sulfonyl]-2-(2,2,4-trimethylpyrrolidin-1-yl)pyridine-3-carboxamide] | +++ (“+++” means <3 uM)
11 | COc1c(F)cc(-c2ccc(C(=O)NS(=O)(=O)c3ccc[nH]c3=O)c(N3C[C@@H](C)CC3(C)C)n2)cc1F [Compound 1801, 6-(3,5-difluoro-4-methoxy-phenyl)-N-[(2-oxo-1H-pyridin-3-yl)sulfonyl]-2-[(4S)-2,2,4-trimethylpyrrolidin-1-yl]pyridine-3-carboxamide] | +++ (“+++” means <3 uM)
